This is an account of results in patent US12018058B2, “Compositions and methods for diagnosing and/or treating kidney injury” (Boston Medical Center Corporation, priority 2018, dated 2024).

One assay concerns primary human PTECs. Format: cell-based. Further details: Improvement in cell survival: dose or concentration left out as unconfirmed. The settings on record: for Cell survival after ischemic stress: PTECs, ATP depletion, versus control peptide. As for the experimental part:
Exposure to metabolic inhibitors is an established model of ischemic stress that reduces ATP content to, 10% of baseline values until recovery is initiated.24,26 To achieve ATP depletion, cells were washed three times in glucose-free DMEM (Invitrogen, Carlsbad, CA) followed by incubation in glucose-free DMEM containing sodium cyanide (5 mM) and 2-deoxy-glucose (5 mM) for the indicated times.26
Recovery was initiated by replacing the stress medium described above with complete primary cell culture medium containing glucose and substrates that support the rapid restoration of cell ATP.27
For in vitro testing in primary human PTECs, peptides ([…]) were tested that replicate the Bax domain responsible for binding NPM,34 or two peptides designed to interfere with NPM function were compared with a random nonspecific sequence of the same length (control). Peptides intended to interfere with NPM function overlap key phosphorylation sites located at the NPM amino terminus (peptide 2) or carboxy terminus (peptide 3) detected by mass spectrometry. To improve cell uptake, all peptides contained a cell-penetrating sequence13. For in vivo experiments, a renal-targeting sequence (NLS) was added to enhance renal peptide uptake.35 Peptides were commercially synthesized (Biomatik, Wilmington, DE) J Am Soc Nephrol 30: ccc-ccc, 2018 Nucleophosmin in AKI 3www.jasn.org BASIC RESEARCHas follows: NPM-Bax blocking peptide: Ac-KKKRKV-(bA)-[…]-COOH (SEQ ID NO: 8); peptide 2: AC-PKKKRKV-(bA)-[…]-COOH (SEQ ID NO: 9); and peptide 3: AC-PKKKRKV-(bA)-ESFKK-QEKTPKTPKGPSSVED-IKAK-COOH (SEQ ID NO: 10). A single dose ([…] of the NPM-Bax blocking or control peptide) was administered by tail vein injection immediately after release of the pedicle clamps(0 timepoint) […] in each experimental group. A total of 42 control and 56 experimental animals were studied.
Transient exposure to metabolic inhibitors replicates ischemia in vivo by activating Bax and causing cell death.13,29,36-38 Cell viability was assayed using a modified colorimetric technique (MTTassay).37 The number of surviving cells is expressed as a percentage of viable control cells detected at baseline. Serum BUN and creatinine levels were measured in tail vein blood samples for 7 days after ischemia using QuantiChrom BUN or creatinine assay kits (BioAssay Systems, Hayward, CA) according to the manufacturer's instructions.

The test system of assay [1] is NPM-Bax complex. The assay is described as follows: NPM-Bax complex formation, 6A7 Bax immunoprecipitation and NPM immunoblot in ischemic PTEC. Format: cell-based. Conditions: ischemic primary murine PTEC; compared to size matched random peptide. An excerpt: (§1) NPM is a relevant therapeutic target in human AKI. Primary human proximal tubule epithelial cells (PTEC) derived from cadaveric kidneys were subjected to ischemic stress (transient ATP depletion) in the presence of specific NPM siRNA or non-sense siRNA. […] Thus, manipulating NPM is an effective maneuver. […] Small peptides of 30 amino acids or less are sufficiently specific to minimize off target effects and also reduce the risk of eliciting an antibody response that causes tachyphylaxis. Peptides were commercially synthesized and fused to a nuclear localizing sequence (this NLS has no functional relationship to the “NPM NLS” that regulates NPM translocation). The NLS-CPP markedly increases renal accumulation of small peptides8 as well as in the proximal tubule. […] To determine its effect on NPM-Bax complex formation, active Bax was immunoprecipitated from PTEC rendered ischemic with an antibody directed against the 6A7 epitope. The precipitates were subjected to immunoblot analysis using an anti-NPM antibody. […] NPM and Bax accumulation was measured in mitochondria isolated from human PTEC after ischemic stress. […] This is likely due to the prolonged half-life (about 80 hr) of the peptide in vitro and in vivo due to the presence of an AC modification slows degradation.
For orientation: In western blotting, separated proteins are transferred to a membrane and probed.

For assay [2], the target named is T1, NPM-Bax complex (Mus musculus, UniProt Q61937).
T1 construct: from tissue; host or cells: renal cortical homogenate of C57BL/6J mice after bilateral renal pedicle clamping
T1 sequence (Q61937 whole entry, one chain of several): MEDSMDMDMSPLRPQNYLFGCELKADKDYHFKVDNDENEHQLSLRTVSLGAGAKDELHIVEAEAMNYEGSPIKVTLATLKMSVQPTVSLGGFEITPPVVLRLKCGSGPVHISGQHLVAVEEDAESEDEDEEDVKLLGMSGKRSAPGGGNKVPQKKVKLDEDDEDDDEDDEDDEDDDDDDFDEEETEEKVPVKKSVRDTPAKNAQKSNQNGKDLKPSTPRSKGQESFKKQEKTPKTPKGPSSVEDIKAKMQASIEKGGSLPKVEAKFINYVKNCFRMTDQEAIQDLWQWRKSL
The assay is described as follows: NPM-Bax interaction, Bax immunoprecipitates from renal cortical homogenates after ischemia. It counts as in vivo, murine. Conditions: for Bax-NPM interaction in postischemic renal homogenates: peptide injected 3 hours after bilateral renal ischemia, FIG. 9B. As for the experimental part: Similar amounts of Bax were detected in each lane, and input protein amounts for each sample were identical. IB, immunoblot; IP, immunoprecipitation.
Cell, tissue, and urinary proteins were harvested using PD buffer containing 40 mM Tris-HCl, pH 8.0, 500 mM NaCl, 0.1% Nonidet P-40, 6 mM EGTA, and a protease inhibitor cocktail (Set I; Calbiochem, San Diego, CA). NPM was immunoprecipitated overnight with NPM antibodies (catalog no. B0556; Sigma-Aldrich) in the presence of protein A/G-agarose beads at 4° C. NPM accumulation was measured in cytosolic samples extracted with low-dose digitonin ([…]).13 Cytosolic proteins were extracted from renal cortical tissue samples using an extraction kit (Biochain Institute, Newark, CA). Briefly, 50-100 mg of kidney cortex tissue was minced on ice and spin washed with 1 ml ice-cold wash buffer before adding […] of buffer C. The mixture was rotated at 4° C. for 20 minutes and then centrifuged at 18,0003 g at 4° C. for 20 minutes before being harvested. Protein levels were measured with the bicinchoninic acid assay (Thermo Scientific, Rockford, IL).
as §1

Where two headings read alike, the source gives them in different places. Square brackets hold non-standard residues; d marks the D form. Peptide text beside a SMILES is read from it. βAla = NCCC(=O)O

`CC[C@H](C)[C@H](NC(=O)[C@@H](NC(=O)[C@H](CC(C)C)NC(=O)[C@H](CO)NC(=O)[C@H](C)NC(=O)[C@@H](NC(=O)[C@H](CC(C)C)NC(=O)[C@@H](NC(=O)CNC(=O)[C@H](C)NC(=O)[C@@H](NC(=O)[C@H](Cc1ccccc1)NC(=O)[C@@H](NC(=O)[C@@H](NC(=O)[C@@H](NC(=O)[C@@H](NC(=O)CCNC(=O)[C@@H](NC(=O)[C@H](CCCCN)NC(=O)[C@H](CCCNC(=N)N)NC(=O)[C@H](CCCCN)NC(=O)[C@H](CCCCN)NC(=O)[C@H](CCCCN)NC(C)=O)C(C)C)[C@@H](C)O)C(C)C)[C@@H](C)O)[C@@H](C)CC)C(C)C)C(C)C)[C@@H](C)O)[C@@H](C)O)C(=O)N[C@@H](Cc1c[nH]c2ccccc12)C(=O)N[C@@H](CCCCN)C(=O)N[C@@H](CCCCN)C(=O)N[C@@H](CCSC)C(=O)NCC(=O)O` [Peptide #1] (Ac-KKKRKV[βAla]TVTIFVAGVLTASLTIWKKMG-OH): in the assay with primary human PTECs, the “Improvement in cell survival” value was 25%. Further, the “Cell survival after ischemic stress” value with primary human PTECs (listed as Bax peptide) is “significantly improve cell survival”; in the assay with primary human PTECs (listed as NPM blocking peptide) it was “improves renal cell survival”. Also, the “Decrease of NPM-Bax complex formation” value in the assay on NPM-Bax complex [1] was “about 50%”. For the same molecule, the “Decrease of NPM-Bax complex formation in vivo (renal cortical homogenates)” value on NPM-Bax complex [2] (after ischemia by pedicle clamping) is reported as “about 50%”. Further, the “Bax-NPM interaction in postischemic renal homogenates” value at NPM-Bax complex [2] is “markedly decreases”; on NPM-Bax complex [2] (listed as Blocking peptide), “markedly reduced”; at NPM-Bax complex [2] (listed as NPM-Bax blocking peptide (Peptide #1)) it was “decreases”.
